How the values were obtained:
Thromboxane A2 receptor = biological target: T1, Thromboxane A2 receptor (Homo sapiens, UniProt P21731); format: functional, cell-based
T1 sequence (P21731 whole entry): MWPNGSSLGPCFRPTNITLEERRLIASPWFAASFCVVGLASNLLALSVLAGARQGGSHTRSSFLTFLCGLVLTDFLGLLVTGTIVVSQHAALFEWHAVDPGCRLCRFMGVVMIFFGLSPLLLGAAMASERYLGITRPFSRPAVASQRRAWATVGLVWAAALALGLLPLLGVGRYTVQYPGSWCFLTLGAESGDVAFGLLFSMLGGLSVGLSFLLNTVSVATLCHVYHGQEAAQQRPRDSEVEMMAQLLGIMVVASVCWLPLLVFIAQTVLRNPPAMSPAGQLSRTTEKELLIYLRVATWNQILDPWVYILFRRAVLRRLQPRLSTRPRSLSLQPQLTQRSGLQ

D(3) dopamine receptor = D(3) dopamine receptor (Homo sapiens, UniProt P35462)
Chain of D(3) dopamine receptor (P35462 whole entry): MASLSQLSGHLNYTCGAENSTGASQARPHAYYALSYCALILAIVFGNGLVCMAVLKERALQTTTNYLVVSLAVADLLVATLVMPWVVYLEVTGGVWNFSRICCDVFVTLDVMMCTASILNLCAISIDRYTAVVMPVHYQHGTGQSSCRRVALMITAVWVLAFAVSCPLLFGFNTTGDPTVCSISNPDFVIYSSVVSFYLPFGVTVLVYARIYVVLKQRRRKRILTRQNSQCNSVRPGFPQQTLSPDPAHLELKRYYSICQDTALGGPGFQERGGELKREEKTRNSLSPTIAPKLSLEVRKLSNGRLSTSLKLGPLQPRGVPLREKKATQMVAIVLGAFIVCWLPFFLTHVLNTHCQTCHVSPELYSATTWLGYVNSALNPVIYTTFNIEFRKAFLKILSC

Adenosine receptor A3 = biological target: T2, Adenosine receptor A3 (Homo sapiens, UniProt P0DMS8)
T2 sequence (P0DMS8 whole entry): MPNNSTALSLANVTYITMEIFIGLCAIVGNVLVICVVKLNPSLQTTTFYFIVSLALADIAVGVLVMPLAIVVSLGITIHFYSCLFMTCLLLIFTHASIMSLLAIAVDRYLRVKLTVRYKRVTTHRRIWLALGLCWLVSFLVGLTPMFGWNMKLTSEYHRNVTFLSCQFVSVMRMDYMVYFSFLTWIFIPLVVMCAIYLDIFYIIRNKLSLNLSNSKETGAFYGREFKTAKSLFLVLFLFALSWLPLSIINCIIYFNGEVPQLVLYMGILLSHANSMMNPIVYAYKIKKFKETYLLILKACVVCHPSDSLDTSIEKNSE

Acetylcholinesterase = Acetylcholinesterase (Homo sapiens, UniProt P22303); format: functional
Chain of Acetylcholinesterase (P22303 whole entry): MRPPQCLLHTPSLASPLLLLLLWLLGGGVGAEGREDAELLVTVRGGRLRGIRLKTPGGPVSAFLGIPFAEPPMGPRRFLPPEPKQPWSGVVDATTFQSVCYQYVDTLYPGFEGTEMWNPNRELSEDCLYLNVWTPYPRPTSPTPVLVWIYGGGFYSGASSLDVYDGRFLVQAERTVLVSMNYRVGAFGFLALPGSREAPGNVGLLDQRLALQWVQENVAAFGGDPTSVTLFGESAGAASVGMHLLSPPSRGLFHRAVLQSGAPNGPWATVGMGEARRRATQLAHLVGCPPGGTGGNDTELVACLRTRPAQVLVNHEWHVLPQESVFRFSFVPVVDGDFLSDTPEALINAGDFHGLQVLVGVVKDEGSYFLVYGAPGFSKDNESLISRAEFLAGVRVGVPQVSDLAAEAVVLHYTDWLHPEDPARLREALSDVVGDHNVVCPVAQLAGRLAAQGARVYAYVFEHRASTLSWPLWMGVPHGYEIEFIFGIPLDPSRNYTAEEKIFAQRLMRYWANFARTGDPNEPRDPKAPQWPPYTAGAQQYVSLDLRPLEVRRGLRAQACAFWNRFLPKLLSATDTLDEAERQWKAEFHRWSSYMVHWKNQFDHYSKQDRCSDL

[1] = biological target: T3, Alpha-1A adrenergic receptor (Homo sapiens, UniProt P35348); format: functional, cell-based
T3 sequence (P35348 whole entry): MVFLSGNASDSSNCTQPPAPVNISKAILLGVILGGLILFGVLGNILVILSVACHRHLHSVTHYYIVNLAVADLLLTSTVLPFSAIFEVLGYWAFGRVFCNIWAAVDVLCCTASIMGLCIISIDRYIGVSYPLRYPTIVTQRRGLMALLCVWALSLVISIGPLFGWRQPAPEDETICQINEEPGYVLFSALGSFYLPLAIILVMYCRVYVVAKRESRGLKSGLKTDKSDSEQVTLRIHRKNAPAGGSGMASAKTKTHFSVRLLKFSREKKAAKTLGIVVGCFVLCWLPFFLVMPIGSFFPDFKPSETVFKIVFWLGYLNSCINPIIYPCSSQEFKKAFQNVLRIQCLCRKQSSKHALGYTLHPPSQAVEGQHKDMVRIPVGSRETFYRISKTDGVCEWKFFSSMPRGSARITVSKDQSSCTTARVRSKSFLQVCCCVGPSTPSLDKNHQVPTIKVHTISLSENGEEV

[2] = biological target: Sodium-dependent noradrenaline transporter (Homo sapiens, UniProt P23975)
Chain of Sodium-dependent noradrenaline transporter (P23975 whole entry): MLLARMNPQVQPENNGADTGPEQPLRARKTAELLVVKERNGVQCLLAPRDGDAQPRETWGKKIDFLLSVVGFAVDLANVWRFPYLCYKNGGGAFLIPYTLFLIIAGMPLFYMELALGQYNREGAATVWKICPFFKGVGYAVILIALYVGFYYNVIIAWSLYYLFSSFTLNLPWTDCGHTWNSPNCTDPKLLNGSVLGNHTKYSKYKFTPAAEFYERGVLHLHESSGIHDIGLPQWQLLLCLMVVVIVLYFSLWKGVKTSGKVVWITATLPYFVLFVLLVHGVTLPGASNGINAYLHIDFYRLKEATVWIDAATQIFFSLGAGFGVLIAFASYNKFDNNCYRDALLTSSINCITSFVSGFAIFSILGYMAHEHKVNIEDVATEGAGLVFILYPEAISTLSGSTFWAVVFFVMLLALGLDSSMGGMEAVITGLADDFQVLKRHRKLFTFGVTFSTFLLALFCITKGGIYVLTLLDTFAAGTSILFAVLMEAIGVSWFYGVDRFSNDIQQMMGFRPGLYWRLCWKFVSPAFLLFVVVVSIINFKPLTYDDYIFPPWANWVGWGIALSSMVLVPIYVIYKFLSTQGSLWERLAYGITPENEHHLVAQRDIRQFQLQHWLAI

[3] = biological target: Beta-2 adrenergic receptor (Homo sapiens, UniProt P07550); format: functional, cell-based
Chain of Beta-2 adrenergic receptor (P07550 whole entry): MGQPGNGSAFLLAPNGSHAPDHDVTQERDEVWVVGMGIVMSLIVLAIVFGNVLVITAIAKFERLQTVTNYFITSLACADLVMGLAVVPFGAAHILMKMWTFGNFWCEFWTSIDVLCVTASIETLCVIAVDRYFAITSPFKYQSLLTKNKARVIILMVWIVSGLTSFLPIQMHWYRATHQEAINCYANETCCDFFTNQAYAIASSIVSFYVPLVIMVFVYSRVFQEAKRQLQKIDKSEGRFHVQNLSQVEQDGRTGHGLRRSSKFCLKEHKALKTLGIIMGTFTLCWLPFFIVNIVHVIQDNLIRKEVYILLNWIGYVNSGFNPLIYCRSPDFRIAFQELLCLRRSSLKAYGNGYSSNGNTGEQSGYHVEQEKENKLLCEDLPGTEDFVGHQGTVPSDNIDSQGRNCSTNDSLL

Estrogen receptor = biological target: T4, Estrogen receptor (Homo sapiens, UniProt P03372)
T4 sequence (P03372 whole entry): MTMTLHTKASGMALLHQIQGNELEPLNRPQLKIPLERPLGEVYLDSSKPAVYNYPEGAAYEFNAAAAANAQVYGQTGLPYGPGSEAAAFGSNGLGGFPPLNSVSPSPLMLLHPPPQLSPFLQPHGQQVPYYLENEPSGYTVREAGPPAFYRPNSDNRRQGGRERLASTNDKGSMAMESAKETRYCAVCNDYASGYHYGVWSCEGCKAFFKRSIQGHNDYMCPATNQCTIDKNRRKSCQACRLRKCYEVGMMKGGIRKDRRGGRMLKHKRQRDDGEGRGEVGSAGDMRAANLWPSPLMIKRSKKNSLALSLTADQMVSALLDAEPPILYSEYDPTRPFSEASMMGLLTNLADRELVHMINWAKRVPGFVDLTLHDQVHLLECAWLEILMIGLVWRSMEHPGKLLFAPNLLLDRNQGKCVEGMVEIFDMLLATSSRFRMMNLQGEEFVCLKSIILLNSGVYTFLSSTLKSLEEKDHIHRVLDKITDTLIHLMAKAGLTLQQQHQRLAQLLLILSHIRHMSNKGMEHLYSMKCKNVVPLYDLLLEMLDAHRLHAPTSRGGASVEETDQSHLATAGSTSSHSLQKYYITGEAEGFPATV

Mu-type opioid receptor = Mu-type opioid receptor (Homo sapiens, UniProt P35372); test: biochemical; format: functional
Chain of Mu-type opioid receptor (P35372 whole entry): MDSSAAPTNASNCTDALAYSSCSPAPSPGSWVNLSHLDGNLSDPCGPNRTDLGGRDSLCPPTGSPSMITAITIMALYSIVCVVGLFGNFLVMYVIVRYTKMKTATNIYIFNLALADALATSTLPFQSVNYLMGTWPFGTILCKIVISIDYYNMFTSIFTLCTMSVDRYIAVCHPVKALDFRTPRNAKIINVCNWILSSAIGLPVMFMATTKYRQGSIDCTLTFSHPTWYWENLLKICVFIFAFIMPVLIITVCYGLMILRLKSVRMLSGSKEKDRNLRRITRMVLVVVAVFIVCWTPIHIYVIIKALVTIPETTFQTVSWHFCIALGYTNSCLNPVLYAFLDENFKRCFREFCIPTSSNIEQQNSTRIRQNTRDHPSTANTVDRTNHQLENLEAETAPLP

[4] = biological target: Kappa-type opioid receptor (Homo sapiens, UniProt P41145)
Chain of Kappa-type opioid receptor (P41145 whole entry): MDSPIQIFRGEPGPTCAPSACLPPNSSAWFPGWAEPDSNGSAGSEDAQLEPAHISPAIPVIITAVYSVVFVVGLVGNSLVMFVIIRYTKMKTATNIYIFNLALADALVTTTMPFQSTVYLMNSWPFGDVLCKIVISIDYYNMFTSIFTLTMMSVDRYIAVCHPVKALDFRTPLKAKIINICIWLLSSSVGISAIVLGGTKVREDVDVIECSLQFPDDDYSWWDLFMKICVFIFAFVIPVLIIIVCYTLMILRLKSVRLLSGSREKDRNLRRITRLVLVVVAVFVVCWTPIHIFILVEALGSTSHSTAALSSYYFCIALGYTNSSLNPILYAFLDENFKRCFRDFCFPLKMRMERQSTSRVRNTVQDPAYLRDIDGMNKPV

Cannabinoid receptor 1 = Cannabinoid receptor 1 (Homo sapiens, UniProt P21554); format: functional, cell-based
Chain of Cannabinoid receptor 1 (P21554 whole entry): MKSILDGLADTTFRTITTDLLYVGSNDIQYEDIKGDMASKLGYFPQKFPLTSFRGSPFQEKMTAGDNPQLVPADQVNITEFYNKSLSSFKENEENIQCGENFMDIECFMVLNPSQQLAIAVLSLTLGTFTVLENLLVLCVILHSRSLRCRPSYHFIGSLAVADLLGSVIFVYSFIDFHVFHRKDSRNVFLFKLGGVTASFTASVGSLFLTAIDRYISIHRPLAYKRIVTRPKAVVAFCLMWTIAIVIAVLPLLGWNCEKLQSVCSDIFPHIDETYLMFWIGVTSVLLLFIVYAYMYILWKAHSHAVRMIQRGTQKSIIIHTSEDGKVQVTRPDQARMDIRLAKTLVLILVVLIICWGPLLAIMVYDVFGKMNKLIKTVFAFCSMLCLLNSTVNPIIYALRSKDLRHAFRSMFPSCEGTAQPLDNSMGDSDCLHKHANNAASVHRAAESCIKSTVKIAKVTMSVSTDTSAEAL

[5] = biological target: Muscarinic acetylcholine receptor M3 (Homo sapiens, UniProt P20309)
Chain of Muscarinic acetylcholine receptor M3 (P20309 whole entry): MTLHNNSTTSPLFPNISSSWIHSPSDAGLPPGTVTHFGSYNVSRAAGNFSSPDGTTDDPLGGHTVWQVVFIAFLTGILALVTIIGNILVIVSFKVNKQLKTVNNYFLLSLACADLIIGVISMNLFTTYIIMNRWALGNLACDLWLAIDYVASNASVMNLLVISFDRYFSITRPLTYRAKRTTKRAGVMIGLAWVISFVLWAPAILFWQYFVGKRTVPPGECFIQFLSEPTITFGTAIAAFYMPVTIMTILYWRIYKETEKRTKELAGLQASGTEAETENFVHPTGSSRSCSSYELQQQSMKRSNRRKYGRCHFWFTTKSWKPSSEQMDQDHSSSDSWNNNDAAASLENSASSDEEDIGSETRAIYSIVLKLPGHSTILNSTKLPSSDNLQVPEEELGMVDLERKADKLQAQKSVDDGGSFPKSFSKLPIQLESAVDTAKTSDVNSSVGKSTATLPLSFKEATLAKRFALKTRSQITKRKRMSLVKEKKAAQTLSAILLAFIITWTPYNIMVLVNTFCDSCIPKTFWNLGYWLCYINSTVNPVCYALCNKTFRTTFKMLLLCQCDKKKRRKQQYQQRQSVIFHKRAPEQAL
Note: assay procedure not described here.

Compound | AC50 (Thromboxane A2 receptor) | AC50 (D(3) dopamine receptor) | AC50 (Adenosine receptor A3) | AC50 (Acetylcholinesterase) | AC50 [1] | AC50 [2] | AC50 [3] | AC50 (Estrogen receptor) | AC50 (Mu-type opioid receptor) | AC50 [4] | AC50 (Cannabinoid receptor 1) | AC50 [5]
c1ccc2c(c1)CCc1ccccc1N2C1CN2CCC1CC2 (centres undefined) [QUINUPRAMINE] | > 30 µM | 6.47 µM | > 30 µM | > 30 µM | 2.41 µM | 4.32 µM | – | – | – | – | – | –
CNC1=Nc2ccc(Cl)cc2C(c2ccccc2)=[N+]([O-])C1 [CHLORDIAZEPOXIDE] | – | – | – | – | – | – | > 30 µM | > 30 µM | – | – | – | –
C[C@H](Cc1cc2c(c(C(N)=O)c1)N(CCCO)CC2)NCCOc1ccccc1OCC(F)(F)F [SILODOSIN] | > 30 µM | 0.0483 µM | > 30 µM | > 30 µM | 0.003 µM | > 30 µM | – | – | – | – | – | –
C=CCSCC1Nc2cc(Cl)c(S(N)(=O)=O)cc2S(=O)(=O)N1 (centres undefined) [ALTHIAZIDE] | > 30 µM | > 30 µM | > 30 µM | > 30 µM | > 30 µM | > 30 µM | – | – | – | – | – | –
CN(C)CCOC(c1ccccc1)c1ccc(Br)cc1 (centres undefined) [BROMODIPHENHYDRAMINE] | 14.8 µM | 2.68 µM | > 30 µM | > 30 µM | > 10 µM | 4.22 µM | – | – | – | – | – | –
NC(=O)OCC(O)COc1ccc(Cl)cc1 (centres undefined) [CHLORPHENESIN CARBAMATE] | > 30 µM | > 30 µM | > 30 µM | > 30 µM | > 30 µM | > 30 µM | – | – | – | – | – | –
CC(=O)O[C@]1(C(C)=O)CC[C@H]2[C@@H]3C=C(Cl)C4=CC(=O)CC[C@]4(C)[C@H]3CC[C@@]21C [CHLORMADINONE ACETATE] | 28.5 µM | > 30 µM | 21 µM | > 30 µM | 18 µM | > 30 µM | – | – | – | – | – | –
Cc1c(N(C)CS(=O)(=O)O)c(=O)n(-c2ccccc2)n1C [METAMIZOLE] | > 30 µM | > 30 µM | > 30 µM | > 30 µM | > 30 µM | > 30 µM | – | – | – | – | – | –
CCC(=O)O[C@]1(C(=O)CCl)[C@@H](C)C[C@H]2[C@@H]3C[C@H](F)C4=CC(=O)C=C[C@]4(C)[C@@]3(F)[C@@H](O)C[C@@]21C [HALOBETASOL PROPIONATE] | > 30 µM | > 30 µM | 19.7 µM | > 30 µM | 13.1 µM | > 30 µM | – | – | – | – | – | –
Cc1ncc(COP(=O)(O)O)c(C=O)c1O [PYRIDOXAL PHOSPHATE ANHYDROUS] | > 30 µM | > 30 µM | > 30 µM | > 30 µM | > 30 µM | > 30 µM | – | – | – | – | – | –
CC(N)Cc1ccc(O)cc1 (centres undefined) [HYDROXYAMPHETAMINE] | > 30 µM | > 30 µM | > 30 µM | > 30 µM | > 30 µM | 9.66 µM | – | – | – | – | – | –
CC(C(=O)O)c1ccc(-c2ccccc2)c(F)c1 (centres undefined) [FLURBIPROFEN] | > 30 µM | > 30 µM | > 30 µM | > 30 µM | > 30 µM | > 30 µM | – | > 30 µM | > 30 µM | > 10 µM | – | –
CC(C)N(CCNC(=O)CN1CCCC1=O)C(C)C | > 30 µM | > 30 µM | > 30 µM | > 30 µM | > 30 µM | > 30 µM | – | – | – | – | – | –
CC1=CCC(C(C)(C)O)CC1O (centres undefined) [SOBREROL] | > 30 µM | > 30 µM | > 30 µM | > 30 µM | > 30 µM | > 30 µM | – | – | – | – | – | –
NCC(CC(=O)O)c1ccccc1 (centres undefined) [PHENIBUT] | > 30 µM | > 30 µM | > 30 µM | > 30 µM | > 30 µM | > 30 µM | – | – | – | – | – | –
CN1CCC(=C2c3ccccc3CCc3cccnc32)CC1 [AZATADINE] | – | – | – | – | – | – | > 30 µM | > 30 µM | – | 9.38 µM | > 30 µM | > 30 µM
CCCC(CCC)C(N)=O [VALPROMIDE] | – | – | – | – | – | – | > 30 µM | > 30 µM | – | > 10 µM | > 30 µM | > 30 µM
COc1cc(N2CCC(N3CCN(C)CC3)CC2)ccc1Nc1ncc(Cl)c(Nc2ccccc2P(C)(C)=O)n1 [BRIGATINIB] | > 30 µM | > 30 µM | > 30 µM | > 30 µM | > 30 µM | > 30 µM | – | – | – | – | – | –
COC(=O)c1ccc(O)cc1 [METHYLPARABEN] | > 30 µM | > 30 µM | > 30 µM | > 30 µM | > 30 µM | > 30 µM | – | – | – | – | – | –
CCOC(=O)c1cncn1[C@H](C)c1ccccc1 [ETOMIDATE] | – | – | – | – | – | – | > 30 µM | > 10 µM | – | > 10 µM | – | > 30 µM
Cc1cc(N)c2ccccc2[n+]1CCCCCCCCCC[n+]1c(C)cc(N)c2ccccc21 | > 30 µM | 0.0798 µM | 8.73 µM | 0.0264 µM | 3.21 µM | 1.47 µM | – | – | – | – | – | –
CC(C)(C)NC[C@H](O)COc1cccc2c1CCCC2=O [LEVOBUNOLOL] | > 30 µM | > 30 µM | > 30 µM | > 30 µM | > 30 µM | > 30 µM | – | – | – | – | – | –
CN1C(=O)/C(=N\NC(N)=S)c2ccccc21 [METHISAZONE] | > 10 µM | > 30 µM | 13.9 µM | > 30 µM | 13.1 µM | > 30 µM | – | – | – | – | – | –
CCN(CCCc1ccccc1)CCCc1ccccc1 [ALVERINE] | > 30 µM | 1.96 µM | > 30 µM | > 30 µM | 0.978 µM | 1.15 µM | – | – | – | – | – | –
COc1cc2c(cc1OC)CC(=O)N(CCCN(C)C[C@H]1Cc3cc(OC)c(OC)cc31)CC2 [IVABRADINE] | > 30 µM | 2.61 µM | > 30 µM | > 30 µM | > 30 µM | > 30 µM | – | – | – | – | – | –
CCCc1nc(C(C)(C)O)c(C(=O)O)n1Cc1ccc(-c2ccccc2-c2nnn[nH]2)cc1 [OLMESARTAN] | > 30 µM | > 30 µM | > 30 µM | > 30 µM | > 30 µM | > 30 µM | – | – | – | – | – | –
COc1ccc(CN(CCN(C)C)c2ccccn2)cc1 [PYRILAMINE] | > 30 µM | – | > 30 µM | > 30 µM | > 30 µM | > 30 µM | – | – | – | – | – | –
CCOC(=O)[C@H](CCc1ccccc1)N[C@@H](C)C(=O)N(CC(=O)O)C1Cc2ccccc2C1 | > 30 µM | > 30 µM | > 30 µM | > 30 µM | > 30 µM | > 30 µM | – | – | – | – | – | –
Cc1cc(NC(=O)C2=C(O)c3ccccc3S(=O)(=O)N2C)no1 [ISOXICAM] | > 30 µM | > 30 µM | > 30 µM | > 30 µM | > 30 µM | > 30 µM | – | – | – | – | – | –
CCOC(=O)N1CSC[C@H]1C(=O)O [TELMESTEINE] | > 30 µM | > 30 µM | > 30 µM | > 30 µM | > 30 µM | > 30 µM | – | – | – | – | – | –

Reference: ChEMBL document CHEMBL5291721, “A preclinical secondary pharmacology resource illuminates target-adverse drug reaction associations of marketed drugs” (Nat Commun, 2023)
